From PMC8942850, “Boron clusters as broadband membrane carriers” (Nature, 2022)

Assays:
[1] = HPTS/DPX transport assay in zwitterionic EYPC vesicles; assay type: in vitro ADME; settings: for Y Conventional / Y Reverse: Extended Data Fig. 4d; for Ymax (%) maximal activity, carrier activity: 13 µM lipid, 10 mM Tris, 107 mM NaCl, HPTS fluorescence
Experimental: The well-established HPTS/DPX assay, which uses 8-hydroxypyrene-1,3,6-trisulfonate (HPTS) and p-xylene-bis-pyridinium (DPX), was implemented to monitor peptide-transport activation (Fig. 2a). […] A surfactant (Triton X-100) was added at the end of the experiment (t = 600 s) to release all vesicle content and normalize the fluorescence intensity data.
Fig. 2 Carrier activity obtained from the HPTS/DPX assay. a, Schematic representation of the transport of otherwise impermeable analytes facilitated by superchaotropic cluster anions with encapsulated HPTS/DPX probe/quencher pair used for signalling. […] Concentrations of carrier and cargo, when fixed, were 40 and 20 µM, respectively, unless explicitly stated. Source data
A thin lipid film was prepared by evaporating a lipid solution with a stream of nitrogen and then dried in vacuo overnight.
Fluorescence intensities were normalized to fractional emission as I(t) = (It − I0)/(I∞ − I0), where I0 = It before cluster addition and I∞ = It after lysis.
In the activator measurements, in which different activators were tested with the same cargo, the activator efficiency (Ea) is determined from their ability to activate the transport of an impermeable cargo molecule and is characterized by Ymax, its maximal activity, and EC50, the effective activator concentration. A potent activator reaches high Ymax at low EC50. To reflect both factors, the activator efficiency is defined as Ea = Ymax × (pEC50/fa), where pEC50 is the negative logarithm of EC50.
In the transport measurements, in which different types of cargo were tested with the same activator, the transport efficiency (Et) reports on the sensitivity of the cargo for being transported and is described by Ymax, the maximal activity, and EC50, the effective cargo concentration. An easily accessible cargo reaches high Ymax at low EC50. The transport efficiency is defined as a composition of both parameters according to Et = Ymax × (pEC50/ft), where pEC50 is the negative logarithm of EC50.
Extended Data Fig. 3 Transport activity. a, Transport activity, Y, in EYPC⊃HPTS/DPX vesicles as a function of cluster concentration at constant cargo concentration (WR7, 20 µM). b, Transport activity, Y, for B12Br12^2− (40 µM) in EYPC⊃HPTS/DPX vesicles as a function of the concentration of different cargo types; red lines correspond to the resulting fit with the Hill equation. Source data

HeLa cells = experiment: Confocal imaging of TAMRA-R8 / TAMRA-D-R8 / TAMRA uptake in living cells
From the text: Representative images of two biological replicates. […] Scale bars, 50 μm.
Representative images of two biological replicates. […] Source data
(1 picture or pasted object on this page, not shown here)

B12Br12^2−
Ea activator efficiency ([1]; Ea = Ymax × (pEC50/fa), fa = 20.6, WR7 (20 μM) cargo, 10% error (SD)): 6.1
Y Conventional ([1]; [B12Br12] 1.00E-04 M): 0.7375
Y Reverse ([1]; [B12Br12] 1.00E-04 M): 0.7289
Y Conventional ([1]; [B12Br12] 1.00E-05 M): 0.08156
Y Reverse ([1]; [B12Br12] 1.00E-05 M): 0.07644
Y Conventional ([1]; [B12Br12] 1.00E-08 M): 0.00214
Y Reverse ([1]; [B12Br12] 1.00E-08 M): 9.09E-04
Y Conventional ([1]; [B12Br12] 1.20E-04 M): 0.8093
Y Reverse ([1]; [B12Br12] 1.20E-04 M): 0.8173
Y Conventional ([1]; [B12Br12] 1.50E-04 M): 0.8756
Y Conventional ([1]; [B12Br12] 2.00E-05 M): 0.1885
Y Reverse ([1]; [B12Br12] 2.00E-05 M): 0.1615
Y Conventional ([1]; [B12Br12] 2.50E-04 M): 0.8813
Y Reverse ([1]; [B12Br12] 2.50E-04 M): 0.8905
Y Conventional ([1]; [B12Br12] 3.00E-05 M): 0.3307
Y Reverse ([1]; [B12Br12] 3.00E-05 M): 0.3469
Y Conventional ([1]; [B12Br12] 4.00E-05 M): 0.4335
Y Conventional ([1]; [B12Br12] 5.00E-06 M): 0.03975
Y Conventional ([1]; [B12Br12] 6.00E-05 M): 0.5294
Y Reverse ([1]; [B12Br12] 6.00E-05 M): 0.5266
Y Conventional ([1]; [B12Br12] 8.00E-05 M): 0.6371
Ymax (%) maximal activity, carrier activity ([1]; carrier concentration varied, WR7 (20 μM) as common cargo, EYPC⊃HPTS/DPX vesicles, pH 7.4, Hill analysis, 10% error (SD) unless stated, n.a. = no detectable activity, d.l. = dye leakage, no determination possible): 95 ± 5%
Ymax (%) maximal activity, carrier activity ([1]; carrier concentration varied, WR7 (20 μM) as common cargo, EYPC⊃HPTS/DPX vesicles, pH 7.4, Hill analysis, 10% error (SD) unless stated, n.a. = no detectable activity, d.l. = dye leakage, no determination possible, listed as brominated cluster): 95%
EC50 ([1]; read-out: EC50 (μM) effective carrier concentration to reach 50% of Ymax, carrier concentration varied, WR7 (20 μM) as common cargo, EYPC⊃HPTS/DPX vesicles, pH 7.4, Hill analysis, 10% error (SD) unless stated, n.a. = no detectable activity, d.l. = dye leakage, no determination possible): 48 µM
TAMRA-R8 fluorescence pattern in cells in presence of cluster (HeLa cells): diffuse peptide fluorescence
